Tested on: Zein protein
Assay: Harshness of surfactant by dye release from solid Zein protein-Coomassie Blue R dye complex (CIE L*a*b colour change)
Design: species or system corn
Conditions: 10 wt % surfactant dilution; disc of protein-dye complex soaked 15 minutes; decrease in b* between first and second colour measurement; lower b = harsher; three replicates
Protocol: Zein powder (10 wt %) and Coomassie Blue R dye (0.1%) were added to a glass jar, and made up to 100 wt % with 90:10 aqueous ethanol (90 ethanol: 10 water). The mixture was left to disperse with stirring for 12 hours to produce protein-dye complex solution.
2 g of the protein-dye complex solution was added to four petri dishes and dried overnight under ambient conditions. The dried discs of protein-dye complex were then removed from the petri dishes and stored until required.
Dilutions (10 wt %) of four surfactants were prepared and a first colour measurement of each dilution was taken using CIEL*a*b on a Konica Minolta spectrometer.
A disc of protein-dye complex was added to each surfactant dilution, and soaked for 15 minutes. A second colour measurement was obtained of the resulting solutions. The decrease in b* value between the first and second colour measurement indicated the increase in blue colour. The lower the b value the ‘bluer’ the sample and the harsher the formulation. Three samples from each surfactant solution were measured as replicates.

Average Δb* | SMILES
−11.2625 | CCCCCCCCCCO[C@@H]1O[C@H](CO)[C@@H](O)[C@H](O)[C@H]1O [Decyl Glucoside]
−49.465 | CCCCCCCCCCCCOS(=O)(=O)[O-].[Na+] [SDS]
